For orientation: LC50 means the concentration lethal to half of the exposed cells or organisms.

In one data set the test system is 3PS lymphocytic leukemia. Particulars: 0.0125 mg/kg; cited from earlier work.
Data set [1] relates to 9KB (human nasopharyngeal carcinoma). Particulars: cited from earlier work.
The subject of data set [2] is 9PS (murine lymphocytic leukemia). Particulars: cited from earlier work.
A further data set relates to stripped cucumber beetle. Particulars: cited from earlier work.
A further data set deals with Mexican bean beetle. The settings on record: cited from earlier work.
The subject of another data set is mosquito larvae. The settings on record: cited from earlier work.
Another data set relates to blow fly larvae. Particulars: cited from earlier work.
Another data set relates to melon aphid. Particulars: cited from earlier work.
The subject of the next data set is two spotted spider mites. Particulars: cited from earlier work.
The subject of data set [3] is free-living nematode, Caenorabditis elegans. The settings on record: cited from earlier work.
Another data set has as its system mice. Particulars: cited from earlier work.
Data set [4] has as its system brine shrimp (Artemia salina Leach). In words: whole plant or invertebrate. Format: in vivo. Particulars: 24 hrs, read-out: BST LC50. As to the method:
The extracts, fractions, and isolated compounds were routinely evaluated for lethality to brine shrimp larvae (BST). The LC50 of brine shrimp (Artemia salina Leach) was determined by substantially the same method described by Meyer et al. [Planta Med., 45: 31-34 (1982)]. The test sample was dissolved in solvent and added to 2-dram vials in an amount to provide 1000, 100, 10, 1, etc. p.p.m. of material in the final brine preparation, assuming complete miscibility in the brine. The vials were dried in vacuo, and artificial sea water, prepared from a commercial salt mixture, was added. Ten brine shrimp larva (nauplii), 48-72 hrs. old, were introduced to the vial, and the volume was made up to 5 ml. with the sea water. After 24 hrs., the percent mortality was computed. Subsequently, LC50 values and 95% confidence limits were calculated by a Finney probit analysis to permit comparison of potencies of extracts and fractions.
(§1) Anticancer activity is a potential use even for the crude extract. The bioassay results for the lethality of brine shrimp (BST), the inhibition of crown gall tumors on potato discs (PD), the reversal in morphology of db-cAMP induced AC glioma cells from that of mature, differentiated astrocytes to that of immature AC glioma cells (mouse brain cells) (9ASK), the dose that inhibits cell growth to one-half that of untreated poorly differentiated human epidermic carcinoma (9KB), the dose that inhibits cell growth to one-half that of a methylcholanthrene-induced lymphoid neoplasm in a DBA/2 mouse (9PS), and the percent displacement in a protein kinase C test for initial extract fractions are shown in Table 1. Obviously, the bioactivity is concentrated in F005.

In data set [5] the test system is 9KB (human nasopharyngeal carcinoma). In words: 9KB cytotoxicity. Format: cell-based. The method, then: (§2) Occasional checks in the potato disc (PD) assay assured us that antitumor activity was present [Ferrigni et al., J. Nat. Prod., 45; 679-686 (1982)]. Cytotoxicity tests were performed at the Purdue Cell Culture Laboratory, Purdue Cancer Center, using standard protocols for 9KB (human nasopharyngeal carcinoma) and 9PS (a chemically-induced murine lymphocytic leukemia) [Suffness et al., Methods In Cancer Research. Vol. 16: 73 (1979), V. T. DeVita, Jr. and H. Busch eds., Academic Press, New York], 9ASK (astrocytoma reversal) [Lgarashi et al., Cell Struct. and Funct., 3: 107 (1978)], A-549 (human lung carcinoma) [Giard et al., J. Nat. Cancer Inst., 51: 1417-1423 (1973)], and HT-29 (human colon adenocarcinoma) [Fogh J. (ed.), Human Tumor Cells, In Vitro, Plenum Press, New York: 115-159 (1975)].
as §1

Data set [6] relates to 9PS (murine lymphocytic leukemia). In words: 9PS cytotoxicity. Format: cell-based. Particulars: Mus musculus; read-out: 9PS ED50. The method, then: as §2, §1
For data set [7], the system named is A-549 (human lung carcinoma). In words: A-549 cytotoxicity. It is filed as cell-based. The settings on record: A549, read-out: A549 ED50. As to the method: as §2
(§3) These two compounds are the most bioactive acetogenins reported to this date. But the safety range for treatments might be larger. In this table, two cytotoxicity tests against human tumor cell lines such as the human lung carcinoma (A-549) [Giard et al., J. Nat. Cancer Inst. 51: 1417-1423 (1973)] and the human colon adenocarcinoma (HT-29) [Fogh, J. (ed.) Human Tumor Cells, In Vitro, pp. 115-159, Plenum Press, New York (1975)] have been performed. […] The mode of action for the acetogenins is still unknown, but it is postulated to involve cell membranes.

Data set [8] deals with HT-29 (human colon adenocarcinoma). In words: HT-29 cytotoxicity. It is filed as cell-based. The settings on record: HT-29, read-out: HT29 ED50. As to the method: as §2, §3
The test system of a further data set is human tumor cell lines. In words: selectivity of cytotoxicity between human tumor cell lines A-549 and HT-29. It is filed as cell-based. The settings on record: compared with bullatacin; A-549 vs HT-29.
Source text: as §3

The subject of a further data set is indicator organisms. In words: pesticidal bioassays, overall. Particulars: in vivo. The method, then: Pesticidal bioassays were conducted at Eli Lilly Laboratories (Greenfield, Ind.) following standard procedures with eight indicator organisms: mosquito larvae (ML) Aedes aegypti (in the media), blowfly larvae (BFL) (1% in the diet), corn root worm (CRW) Diabrotics undecimcuntata howardii (in soil), two-spotted spider mite (2SSM) Tetranychus urticae (on foliage), southern army worm (SAW) Spodoptera eridania (on foliage), melon aphid (MA) (5000 ppm on foliage), cotton aphid (CA) Aphis gossypii, (on foliage) and Haemonchus contortus (HC) (a nematode, 0.1% in the media).
The compounds can be formulated at concentrations of about 1 to about 200 ppm in conventional liquid or solid forms for application to pest infected areas.

The test system of data set [9] is P-388 (PS) lymphocytic leukemia. Particulars: cited from earlier work.
For data set [10], the system named is P-388 lymphocytic leukemia. The settings on record: cited from earlier work.
The next data set concerns PS. Particulars: cited from earlier work.

In brackets after ≈: the same amount, converted by molar mass. Where two headings read alike, the source gives them in different places.

On to `CCCCCCCCCCC(O)C1CCC(C2CCC(C(O)CCCCCCCCCCC(O)CC3=CC(C)OC3=O)O2)O1` (stereo not shown) [Asimicin], for which the “% T/C” value with 3PS lymphocytic leukemia is given as 124 % T/C. In addition, the “9KB ED50” value in [1] was < 10^-5 μg/ml. The “9PS ED50” value in data set [2] is < 10^-7 μg/ml. Moreover, the pesticidal activity entry with stripped cucumber beetle, in the data set with Mexican bean beetle, in the data set on mosquito larvae, in the data set on blow fly larvae, in the data set with melon aphid and in the data set on two spotted spider mites was “Promising pesticidal activity” in each case. Moreover, the pesticidal activity result in data set [3] is “Promising pesticidal activity”. Moreover, in the data set with mice, the “toxic to mice at” value is 6.25 mg/kg.
Regarding `CCCCCCCCCC[C@H](OC(C)=O)[C@H]1CC[C@H]([C@H]2CC[C@H]([C@@H](CCCCCCCCCC[C@H](CC3=C[C@H](C)OC3=O)OC(C)=O)OC(C)=O)O2)O1` [Bullatacin triacetate], the LC50 in data set [4] turned out to be 5.7 µg/mL. The “9KB ED50” value in data set [5] was 6.85e-07 µg/mL. Moreover, the figures for the IC50 in data set [6], in data set [7] and in [8] were 0.00389 µg/mL, 2 ng/mL and over 100 ng/mL, respectively.
Turning to `CCCCCCCCCC[C@H](OC(C)=O)[C@H]1CC[C@H]([C@H]2CC[C@H]([C@@H](CCCCCCCCCC[C@@H]3C[C@@H](CC(C)=O)C(=O)O3)OC(C)=O)O2)O1` [Bullatacinone diacetate], in data set [4], the LC50 was over 10 µg/mL. The “9KB ED50” value in data set [5] worked out at 5000 µg/mL. The figures for the IC50 in [6], in data set [7] and in data set [8] were 0.0422 µg/mL, 28 ng/mL and 100 ng/mL, respectively.
Consider `CCCCCCCCCC[C@H](O)[C@H]1CC[C@H]([C@H]2CC[C@H]([C@H](O)CCCCCCCCCCC3CC(CC(C)=O)C(=O)O3)O2)O1` (stereo partly shown) [Bullatacinone], for which the LC50 in [4] is 0.003 µg/mL (≈ 4.82 nM). The “9KB ED50” value in data set [5] is recorded as < 10^-12 mcg/ml. Besides, the IC50 in data set [6] stood at 0.00423 µg/mL (≈ 6.79 nM); in data set [7], 1 ng/mL (≈ 1.61 nM). The selectivity of cytotoxicities result in the data set on human tumor cell lines is recorded as “more selective cytotoxicities than bullatacin”. Besides, the “pesticidal activity” value in the data set on indicator organisms is reported as “lack of pesticidal activity”.
`CCCCCCCCCC[C@H](O)[C@H]1CC[C@H]([C@H]2CC[C@H]([C@H](O)CCCCCCCCCC[C@@H](O)CC3C[C@H](C)OC3=O)O2)O1` (stereo partly shown) [Dihydro-bullatacin]: the LC50 in data set [4] turned out to be 0.0145 µg/mL (≈ 23.2 nM). The figures for the IC50 in data set [7] and in data set [8] were under 0.001 ng/mL and 0.0333 ng/mL (≈ 0.0533 nM), respectively.
For the molecule `CCCCCCCCCC[C@H](OC(C)=O)[C@H]1CC[C@H]([C@H]2CC[C@H]([C@H](O)CCCCCCCCCCCCC3=C[C@H](C)OC3=O)O2)O1` [Uvaricin], in data set [9], the “activity in vivo against P-388 lymphocytic leukemia in mice” value is on record as “demonstrated activity in vivo”.
As to `CCCCCCC(O)CCCC(O)C1CCC(C2CCC(C(O)CCCCCCCCCCCCC3=CC(C)OC3=O)O2)O1` (stereo not shown) [isorollinicin], the “in vitro cytotoxicity against P-388” value in [10] was “in vitro cytotoxicity”.
With `CCCCCCCCCCC(O)C1CCC(C2CCC(C(O)CCCCCCCCCCC(O)CC3=CC(C)OC3=O)O2)O1` (stereo not shown) [rolliniastatin], in the data set with PS, the life extension was 28%.
Take `CCCCCCCCC[C@@H](O)[C@@H](O)[C@@H]1CC[C@@H]([C@@H]2CC[C@@H]([C@@H](O)CCCCCCCCCCCCC3=CC(C)OC3=O)O2)O1` (stereo partly shown) [rollinicin]: the “in vitro cytotoxicity against P-388” value in data set [10] is “in vitro cytotoxicity”.

(Values after US5229419A, “Chemotherapeutically active acetogenins” (Purdue Research Foundation, priority 1992, dated 1993).)
